Data: ChEMBL document CHEMBL5233266, “β-Carboline as a Privileged Scaffold for Multitarget Strategies in Alzheimer's Disease Therapy” (J Med Chem, 2021)

Key:
[1] = target: Cyclin-dependent kinase 2 (Homo sapiens, UniProt P24941); assay: Inhibition of CDK2 (unknown origin)
[2] = target: Rho-associated protein kinase 1 (Homo sapiens, UniProt Q13464); assay: Inhibition of ROCK1 (unknown origin)
[3] = target: Rho-associated protein kinase 2 (Homo sapiens, UniProt O75116); assay: Inhibition of ROCK2 (unknown origin)
[4] = target: Dual specificity protein kinase CLK2 (Homo sapiens, UniProt P49760); assay: Inhibition of CLK2 (unknown origin)
[5] = target: Dual specificity protein kinase CLK3 (Homo sapiens, UniProt P49761); assay: Inhibition of CLK3 (unknown origin)
[6] = target: Dual specificity protein kinase CLK4 (Homo sapiens, UniProt Q9HAZ1); assay: Inhibition of CLK4 (unknown origin)
[7] = target: Mitogen-activated protein kinase 1 (Homo sapiens, UniProt P28482); assay: Inhibition of ERK2 (unknown origin)
[8] = target: Tyrosine-protein kinase Fyn (Homo sapiens, UniProt P06241); assay: Inhibition of FYN (unknown origin)
[9] = target: Tyrosine-protein kinase Lck (Homo sapiens, UniProt P06239); assay: Inhibition of LCK (unknown origin)
[10] = target: Tyrosine-protein kinase Lyn (Homo sapiens, UniProt P07948); assay: Inhibition of LYN (unknown origin)
[11] = target: cAMP-dependent protein kinase (PKA) (Homo sapiens, UniProt P22694+P17612+P22612); assay: Inhibition of PKA (unknown origin); type: protein assay
[12] = target: Protein kinase C (PKC); assay: Inhibition of PKC (unknown origin); type: protein assay, Homo sapiens
[13] = target: GABA-A receptor; anion channel; assay: Displacement of [3H]flunitrazepam from GABAA (unknown origin ) receptor by radioligand binding assay; type: protein-complex assay, Homo sapiens
[14] = target: Dual specificity protein kinase CLK1 (Homo sapiens, UniProt P49759); assay: Inhibition of CLK1 (unknown origin)
[15] = target: Dual specificity tyrosine-phosphorylation-regulated kinase 1A (Homo sapiens, UniProt Q13627); assay: Inhibition of DYRK1A (unknown origin)
[16] = target: Glycogen synthase kinase-3 beta (Homo sapiens, UniProt P49841); assay: Inhibition of GSK-3beta (unknown origin)
[17] = target: Cyclin-dependent kinase 5 (Homo sapiens, UniProt Q00535); assay: Inhibition of CDK5 (unknown origin)
[18] = target: Gamma-aminobutyric acid receptor subunit alpha-1 (Rattus norvegicus, UniProt P62813); assay: Displacement of [3H]-flumazenil from rat recombinant alpha1 GABAA receptor assessed as inhibition constant in presence of zolpidem
[19] = target: Gamma-aminobutyric acid receptor subunit alpha-2 (Rattus norvegicus, UniProt P23576); assay: Displacement of [3H]-flumazenil from rat recombinant alpha2 GABAA receptor assessed as inhibition constant in presence of zolpidem

Sequence of Cyclin-dependent kinase 5 (Q00535 whole entry): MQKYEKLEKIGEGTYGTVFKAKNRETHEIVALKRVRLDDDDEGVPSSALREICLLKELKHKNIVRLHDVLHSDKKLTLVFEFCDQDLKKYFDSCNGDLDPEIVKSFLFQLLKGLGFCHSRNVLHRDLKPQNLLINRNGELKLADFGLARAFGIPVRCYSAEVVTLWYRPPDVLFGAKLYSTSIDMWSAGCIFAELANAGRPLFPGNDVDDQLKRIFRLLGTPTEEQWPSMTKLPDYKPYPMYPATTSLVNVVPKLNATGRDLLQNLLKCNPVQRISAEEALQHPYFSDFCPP
Sequence of Tyrosine-protein kinase Fyn (P06241 whole entry): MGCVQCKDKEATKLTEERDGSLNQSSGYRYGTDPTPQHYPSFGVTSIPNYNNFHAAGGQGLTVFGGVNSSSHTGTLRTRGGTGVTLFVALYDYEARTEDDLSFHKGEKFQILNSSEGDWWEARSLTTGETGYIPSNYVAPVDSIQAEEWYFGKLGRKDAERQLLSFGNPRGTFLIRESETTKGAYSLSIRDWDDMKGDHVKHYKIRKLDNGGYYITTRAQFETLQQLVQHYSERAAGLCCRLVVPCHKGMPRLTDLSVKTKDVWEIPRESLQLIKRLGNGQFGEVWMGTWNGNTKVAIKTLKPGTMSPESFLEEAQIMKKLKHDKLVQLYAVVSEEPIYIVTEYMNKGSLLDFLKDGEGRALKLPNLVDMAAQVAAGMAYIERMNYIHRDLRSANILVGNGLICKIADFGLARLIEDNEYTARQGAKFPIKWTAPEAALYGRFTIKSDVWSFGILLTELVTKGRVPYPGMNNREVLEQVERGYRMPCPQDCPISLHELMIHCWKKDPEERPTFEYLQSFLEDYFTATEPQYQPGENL
Sequence of Rho-associated protein kinase 1 (Q13464 whole entry): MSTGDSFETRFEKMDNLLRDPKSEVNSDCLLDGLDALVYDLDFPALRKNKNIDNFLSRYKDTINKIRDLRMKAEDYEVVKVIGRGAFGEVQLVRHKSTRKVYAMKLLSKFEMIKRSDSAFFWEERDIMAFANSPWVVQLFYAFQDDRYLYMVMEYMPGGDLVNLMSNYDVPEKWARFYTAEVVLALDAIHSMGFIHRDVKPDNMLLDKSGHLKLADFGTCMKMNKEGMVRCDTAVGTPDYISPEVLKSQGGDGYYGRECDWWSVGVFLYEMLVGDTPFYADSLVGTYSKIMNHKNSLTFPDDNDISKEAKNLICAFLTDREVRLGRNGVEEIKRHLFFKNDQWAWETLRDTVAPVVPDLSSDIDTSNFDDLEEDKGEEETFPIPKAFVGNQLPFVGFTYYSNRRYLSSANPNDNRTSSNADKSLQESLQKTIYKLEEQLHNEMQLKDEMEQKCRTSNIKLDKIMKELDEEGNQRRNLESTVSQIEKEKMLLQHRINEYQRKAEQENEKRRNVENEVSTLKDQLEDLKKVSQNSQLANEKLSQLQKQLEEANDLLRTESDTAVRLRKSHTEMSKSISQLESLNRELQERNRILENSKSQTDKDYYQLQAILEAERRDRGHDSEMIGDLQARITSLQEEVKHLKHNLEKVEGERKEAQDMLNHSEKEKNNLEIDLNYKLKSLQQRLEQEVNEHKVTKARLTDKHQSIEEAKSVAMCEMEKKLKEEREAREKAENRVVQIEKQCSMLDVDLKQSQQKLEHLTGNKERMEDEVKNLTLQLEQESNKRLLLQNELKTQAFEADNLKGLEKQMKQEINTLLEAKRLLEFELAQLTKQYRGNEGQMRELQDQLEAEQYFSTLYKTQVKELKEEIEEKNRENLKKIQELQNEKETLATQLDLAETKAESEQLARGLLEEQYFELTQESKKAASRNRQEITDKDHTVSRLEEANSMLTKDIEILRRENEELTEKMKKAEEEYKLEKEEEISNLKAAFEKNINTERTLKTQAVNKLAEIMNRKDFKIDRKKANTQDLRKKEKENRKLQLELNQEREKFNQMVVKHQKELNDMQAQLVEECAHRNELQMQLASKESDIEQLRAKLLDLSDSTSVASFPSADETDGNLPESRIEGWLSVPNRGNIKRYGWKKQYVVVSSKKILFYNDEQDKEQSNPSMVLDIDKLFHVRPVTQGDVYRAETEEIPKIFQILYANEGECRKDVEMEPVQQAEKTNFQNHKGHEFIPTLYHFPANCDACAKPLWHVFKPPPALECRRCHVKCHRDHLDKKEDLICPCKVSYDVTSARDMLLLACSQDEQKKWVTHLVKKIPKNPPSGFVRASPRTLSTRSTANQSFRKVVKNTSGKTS
Sequence of Dual specificity protein kinase CLK3 (P49761 whole entry): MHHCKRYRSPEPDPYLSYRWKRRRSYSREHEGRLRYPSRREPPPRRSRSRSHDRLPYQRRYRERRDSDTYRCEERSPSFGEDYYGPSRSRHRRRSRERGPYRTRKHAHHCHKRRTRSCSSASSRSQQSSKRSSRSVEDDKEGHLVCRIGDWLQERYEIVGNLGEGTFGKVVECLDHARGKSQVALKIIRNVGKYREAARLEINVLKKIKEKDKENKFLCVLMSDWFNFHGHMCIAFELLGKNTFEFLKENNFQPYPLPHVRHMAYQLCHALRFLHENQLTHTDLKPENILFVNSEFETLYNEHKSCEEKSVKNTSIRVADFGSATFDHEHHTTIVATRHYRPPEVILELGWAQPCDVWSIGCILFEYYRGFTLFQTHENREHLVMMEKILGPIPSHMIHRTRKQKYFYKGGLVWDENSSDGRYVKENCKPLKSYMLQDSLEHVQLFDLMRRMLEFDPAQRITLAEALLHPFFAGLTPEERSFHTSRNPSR
Sequence of Mitogen-activated protein kinase 1 (P28482 whole entry): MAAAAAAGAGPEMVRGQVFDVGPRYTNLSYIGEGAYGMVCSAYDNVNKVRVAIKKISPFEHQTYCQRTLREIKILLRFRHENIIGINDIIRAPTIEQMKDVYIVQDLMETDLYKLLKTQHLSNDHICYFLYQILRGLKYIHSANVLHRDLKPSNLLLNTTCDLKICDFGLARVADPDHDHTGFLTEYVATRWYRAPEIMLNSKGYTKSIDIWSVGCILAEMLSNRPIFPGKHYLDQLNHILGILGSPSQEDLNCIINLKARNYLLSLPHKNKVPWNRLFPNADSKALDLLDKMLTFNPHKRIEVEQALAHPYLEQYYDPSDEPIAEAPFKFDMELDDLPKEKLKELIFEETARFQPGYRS
Sequence of Tyrosine-protein kinase Lyn (P07948 whole entry): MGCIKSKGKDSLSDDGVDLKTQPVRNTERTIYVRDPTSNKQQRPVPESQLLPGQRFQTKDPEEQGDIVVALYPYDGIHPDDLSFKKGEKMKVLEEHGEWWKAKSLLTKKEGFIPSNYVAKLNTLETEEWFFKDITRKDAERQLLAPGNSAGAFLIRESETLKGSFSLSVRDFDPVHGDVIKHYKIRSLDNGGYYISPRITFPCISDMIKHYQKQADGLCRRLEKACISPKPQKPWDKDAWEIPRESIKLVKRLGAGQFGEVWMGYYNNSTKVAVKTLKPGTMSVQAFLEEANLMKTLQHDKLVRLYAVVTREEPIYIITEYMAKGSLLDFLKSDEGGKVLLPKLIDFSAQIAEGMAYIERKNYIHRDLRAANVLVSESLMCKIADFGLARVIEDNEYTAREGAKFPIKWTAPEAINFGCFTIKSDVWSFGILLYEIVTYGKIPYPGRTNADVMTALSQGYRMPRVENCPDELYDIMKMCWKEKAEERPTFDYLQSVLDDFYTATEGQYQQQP
Sequence of Dual specificity protein kinase CLK2 (P49760 whole entry): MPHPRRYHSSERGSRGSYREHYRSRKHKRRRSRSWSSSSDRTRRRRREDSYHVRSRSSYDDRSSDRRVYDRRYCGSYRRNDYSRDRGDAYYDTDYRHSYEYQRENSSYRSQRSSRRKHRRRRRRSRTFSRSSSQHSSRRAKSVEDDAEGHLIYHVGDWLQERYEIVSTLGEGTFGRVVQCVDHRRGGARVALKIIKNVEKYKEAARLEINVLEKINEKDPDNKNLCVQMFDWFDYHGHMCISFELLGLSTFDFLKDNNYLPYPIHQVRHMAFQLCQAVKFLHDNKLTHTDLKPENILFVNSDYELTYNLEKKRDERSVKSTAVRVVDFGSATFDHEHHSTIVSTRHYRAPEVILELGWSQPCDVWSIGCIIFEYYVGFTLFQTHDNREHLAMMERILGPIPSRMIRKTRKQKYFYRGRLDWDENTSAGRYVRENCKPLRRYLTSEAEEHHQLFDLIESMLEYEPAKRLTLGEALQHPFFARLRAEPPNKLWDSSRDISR
Sequence of Dual specificity protein kinase CLK4 (Q9HAZ1 whole entry): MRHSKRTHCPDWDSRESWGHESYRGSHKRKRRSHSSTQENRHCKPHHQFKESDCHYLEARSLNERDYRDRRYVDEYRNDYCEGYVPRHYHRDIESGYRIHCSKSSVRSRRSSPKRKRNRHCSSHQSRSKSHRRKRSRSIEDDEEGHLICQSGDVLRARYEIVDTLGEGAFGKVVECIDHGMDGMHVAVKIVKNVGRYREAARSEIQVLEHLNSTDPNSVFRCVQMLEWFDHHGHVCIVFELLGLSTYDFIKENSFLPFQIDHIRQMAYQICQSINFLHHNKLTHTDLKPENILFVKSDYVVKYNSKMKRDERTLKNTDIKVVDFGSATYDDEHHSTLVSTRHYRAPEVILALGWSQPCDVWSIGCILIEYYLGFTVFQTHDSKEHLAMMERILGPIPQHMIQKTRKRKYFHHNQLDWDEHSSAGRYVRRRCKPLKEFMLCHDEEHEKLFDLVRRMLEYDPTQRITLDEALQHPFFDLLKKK
Sequence of Glycogen synthase kinase-3 beta (P49841 whole entry): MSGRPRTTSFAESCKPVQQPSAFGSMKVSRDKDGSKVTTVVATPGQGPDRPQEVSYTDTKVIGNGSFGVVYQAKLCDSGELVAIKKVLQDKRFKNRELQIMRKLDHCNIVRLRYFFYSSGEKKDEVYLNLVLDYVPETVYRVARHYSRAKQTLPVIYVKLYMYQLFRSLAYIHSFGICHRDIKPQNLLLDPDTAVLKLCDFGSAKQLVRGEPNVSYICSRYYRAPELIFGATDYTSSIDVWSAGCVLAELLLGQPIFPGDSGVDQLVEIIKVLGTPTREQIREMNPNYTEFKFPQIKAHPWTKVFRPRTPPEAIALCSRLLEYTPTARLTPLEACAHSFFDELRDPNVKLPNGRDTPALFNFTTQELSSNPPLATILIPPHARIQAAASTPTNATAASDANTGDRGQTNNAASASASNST

COc1ccc2c(c1)[nH]c1c(C)nccc12 [HARMINE]
IC50 [1]: 33000 nM | IC50 [2]: 1500 nM | IC50 [3]: > 40000 nM | IC50 [4]: 120 nM | IC50 [5]: 3000 nM | IC50 [6]: 24 nM | IC50 [7]: > 30000 nM | IC50 [8]: > 250000 nM | IC50 [9]: > 250000 nM | IC50 [10]: > 250000 nM | IC50 [11]: > 250000 nM | IC50 [12]: > 250000 nM | IC50 [13]: > 100000 nM

N#CCn1c2ccc(O)cc2c2c3c(n4cccc4c21)C(=O)NC3=O
IC50 [14]: 260 nM | IC50 [15]: 200 nM | IC50 [16]: 420 nM

Cc1[nH]cnc1-c1nccc2c1[nH]c1ccccc12
IC50 [17]: 5000 nM

Cn1c2ccc(F)cc2c2c(C(=O)N3CCCC3)cn(-c3ccccc3)c(=O)c21
Ki [18]: 7 nM | Ki [19]: 12 nM
